Data set [1] is described as follows: Inhibition of linoleic acid peroxidation, followed by oxygen consumption after thermal initiation by ABIP. The class given is biochemical. The conditions noted are these: 37 °C; for decrease in oxygen consumption (inhibition of lipid peroxidation): radical reaction thermally initiated by ABIP, after addition of antioxidant. As to the method: The effect of the antioxidants on lipid peroxidation was verified by measuring the quantity of oxygen consumed at 37 °C as a consequence of the radical reaction thermally initiated by ABIP.

The nature of data set [2]: Spin labelling (EPR) with n-SASL to find the position in the membrane. The class given is physicochemical. The conditions noted are these: for position of the reactive hydroxyl group in the bilayer: EPR, DPPC liposomes; for location of the molecule in the bilayer: EPR spectra of n-SASL (positions 5, 7, 10, 12, 16) in DPPC liposomes. As to the method: (§1) As the antioxidant efficacy of both products is related to their partitioning between the water and lipid phase and to their position in the membrane bilayer, an investigation was carried out on the interactions of resveratrol and piceid in multilamellar liposomes of saturated L-alpha-phosphatidylcholine (PC) of various chain lengths (dimyristoyl, DMPC; dipalmitoyl, DPPC; distearoyl, DSPC) to determine: a) partition coefficients of the stilbenes between liposomes and water; b) modification of lipid bilayer organization; c) their position in the membrane using differential calorimetric analysis (DSC) and spin labelling (EPR).

Data set [3] is described as follows: Free radical neutralization followed spectrophotometrically (disappearance of the band at 515 nm). The class given is biochemical. Conditions: radical neutralizing activity, spectrophotometric. The source says:
(§2) With DHHP, the radical neutralizing activity was instead followed spectrophotometrically by measuring the initial rate (Vo) of the disappearance of its characteristic band at 515 nm. […] It was also required to verify whether the two products examined are able to react with the free radical initiators before the latter activate lipid peroxidation in the membrane.

A short description of data set [4]: Reaction with free radicals and radical initiators before they activate lipid peroxidation. The class given is biochemical.
Source text: as §2

A short description of data set [5]: Differential calorimetric analysis (DSC) of the gel-to-fluid transition of liposomes. The class given is physicochemical. The conditions noted are these: DMPC, DPPC, DSPC multilamellar liposomes at increasing stilbene concentrations. As to the method:
as §1

The nature of data set [6]: Partition coefficients of the stilbenes between liposomes and water. The class given is physicochemical. The conditions noted are these: for partitioning between water and lipid phase: liposomes / water. As for the experimental part: as §1

For `Cc1c(C)c2c(c(C)c1O)CC[C@@](C)(CCC[C@H](C)CCC[C@H](C)CCCC(C)C)O2` [vitamin E, alpha-tocopherol, reference compound], in data set [1], the “decrease in oxygen consumption (inhibition of lipid peroxidation)” value is recorded as “brief initial period of strong inhibition”. In addition, the “position of the reactive hydroxyl group in the bilayer” value (shortened to “position”) in data set [2] is recorded as “more displaced towards the polar surface”.
For `Cc1cc(C(C)(C)C)c(O)c(C(C)(C)C)c1` [BHT, 2,6-di-tert-butyl-4-methyl-phenol, reference compound], in that order: “brief initial period of strong inhibition” and “located more deeply”.
For the molecule `OC[C@H]1O[C@@H](Oc2cc(O)cc(/C=C/c3ccc(O)cc3)c2)[C@H](O)[C@@H](O)[C@@H]1O` [piceid], the “initial rate (Vo) of the disappearance of its characteristic band at 515 nm” value in data set [3] is “comparable to those of BHT (although lower than those of vitamin E)”. The “duration of the inhibitory effect on oxygen consumption” value in data set [1] (ABIP-initiated, compared with vitamin E and BHT) is reported as “more prolonged effect over time”. Also, the “decrease in oxygen consumption (inhibition of lipid peroxidation)” value in data set [1] was “steady decrease in oxygen consumption greater than that of vitamin E and BHT”. Further, the “reactivity with the free radicals and radical initiators under examination” value in data set [4] (in water, before initiators activate lipid peroxidation in the membrane) was “react with all the free radicals and radical initiators under examination”. The “effectiveness (quantitative evaluations)” value in data set [4] (piceid compared with resveratrol) is given as “more effective than resveratrol”. In data set [2], the “location of the molecule in the bilayer” value is “located in the hydrophobic region of the bilayer although piceid is closer to the hydrophilic region” and the “position” value is on record as “very close to the two double bonds of the polyunsaturated fatty acids (PUFA)”. In data set [5], the “DSC profiles of the gel-to-fluid state transition” value is “broadened and shifted towards lower temperatures”. Further, the “hydrophobicity from partition coefficient measurements” value in data set [6] (between liposomes and water) is recorded as “less hydrophobic than resveratrol”. Moreover, the “partitioning between water and lipid phase” value in data set [6] is “sufficiently lipophilic to partition themselves almost exclusively in the lipid phase”.
Consider `Oc1ccc(C=Cc2cc(O)cc(O)c2)cc1` [resveratrol], for which, in data set [2], the “location of the molecule in the bilayer” value was “located in the hydrophobic region of the bilayer” and the “position” value is on record as “very close to the two double bonds of the polyunsaturated fatty acids (PUFA)”. In addition, the “DSC profiles of the gel-to-fluid state transition” value in data set [5] was “broadened and shifted towards lower temperatures”. For the same molecule, in data set [6], the “partitioning between water and lipid phase” value is “sufficiently lipophilic to partition themselves almost exclusively in the lipid phase”.
